Measured values: ChEMBL document CHEMBL4304776, “Indicaxanthin, a multi-target natural compound from Opuntia ficus-indica fruit: From its poly-pharmacological effects to biochemical mechanisms and molecular modelling studies” (Eur J Med Chem, 2019)

What was measured:
Homo sapiens = species on record: Homo sapiens; test: Binding affinity to human LDL assessed per mg of protein
B16-F10 [1] = test: Antitumor activity against […] cells xenografted in C57BL/6 mouse assessed as reduction in tumor volume at 3.2 mg/kg, po measured after 14 days post transfection relative to control; format: functional; settings: 336 h
B16-F10 [2] = test: Antitumor activity against […] cells xenografted in C57BL/6 mouse assessed as reduction in tumor weight at 3.2 mg/kg, po measured after 14 days post transfection relative to control; format: functional; settings: 336 h
[3] = Drug concentration in rat brain at 2 umol/kg, po after 2.5 hrs; format: ADME, organism-based; settings: read-out: Ct
Caco-2 = test: Antiproliferative activity against human Caco2 cells assessed as reduction in cell viability after 48 hrs by MTT assay; format: functional, cell-based; settings: Caco-2, 48 h
[4] = Plasma concentration in rat at 2 uM/kg, po after 2.5 hrs; format: ADME, organism-based; settings: in vivo
HUVEC = test: Antiinflammatory activity in HUVEC assessed as reduction in TNF-alpha induced ICAM1 protein expression at 5 uM incubated for 5 hrs followed by TNFalpha-induction and measured after 16 hrs by flow cytometric analysis relative to control; format: functional; settings: Homo sapiens
[5] = Drug concentration in rat brain cortex at […], po after 1 hr; format: ADME, organism-based; settings: read-out: Ct
B16-F10 [6] = test: Antitumor activity against […] cells xenografted in C57BL/6 mouse assessed as reduction in CXCL1 level at 3.2 mg/kg, po measured after 14 days post transfection relative to control; format: functional; settings: 336 h
[7] = Drug concentration in rat brain cerebellum at […], po after 1 hr; format: ADME, organism-based; settings: read-out: Ct

Bmax (Homo sapiens): 0.52 nmol | concentration at 2.5 h [3]: 20 ng/g | IC50 (Caco-2): 115 µM | Cp [4]: 200 nM | concentration at 1 h [5]: 50 ng/g | concentration at 1 h [7]: 90 ng/g
Compound: O=C(O)C1=C/C(=C/C=[N+]2/CCC[C@H]2C(=O)[O-])C[C@@H](C(=O)O)N1
inhibition in vivo at 3.2 mg/kg (B16-F10 [1]): 86% | inhibition in vivo at 3.2 mg/kg (B16-F10 [2]): 83% | inhibition at 5 µM (HUVEC): -15% | inhibition in vivo at 3.2 mg/kg (B16-F10 [6]): 42%
